BindingDB's records for doi:10.1016/j.bmcl.2014.06.001 (Tohoku Pharmaceutical University, 2014)
pIC50: −log10 of the molar value.

Experiment: Inhibition of Wistar rat intestinal maltase assessed as inhibition of D-glucose release after 30 mins by spectrophotometry

## OC[C@@H]1N[C@@H](CCCCc2ccc(O)cc2)[C@H](O)[C@H]1O
  pIC50: 6.77
